Values joined by “and” are separate entries in the source; they are usually repeats but may differ in a detail not shown here. Equal entries are not always repeated. Where two headings read alike, the source gives them in different places.
Columns and labels:
CYP = CYP inhibition; format: in vitro ADME; details: In vitro CYP inhibition pooled; for potency: potency class in words
Description: Supplement media-1.zip/CYP_Inhibition.csv, table | column: ic50; potency

alpha2A (h) = target: T1, alpha2A (h) (Homo sapiens, UniProt P08913); assay: In vitro CEREP profiling, alpha2A (h) (antagonist radioligand); format: binding; details: test compound 10 uM
T1 construct: purchased Eurofins Cerep (SafetyScreen44), recognised from the panel format
T1 sequence (P08913 1-465): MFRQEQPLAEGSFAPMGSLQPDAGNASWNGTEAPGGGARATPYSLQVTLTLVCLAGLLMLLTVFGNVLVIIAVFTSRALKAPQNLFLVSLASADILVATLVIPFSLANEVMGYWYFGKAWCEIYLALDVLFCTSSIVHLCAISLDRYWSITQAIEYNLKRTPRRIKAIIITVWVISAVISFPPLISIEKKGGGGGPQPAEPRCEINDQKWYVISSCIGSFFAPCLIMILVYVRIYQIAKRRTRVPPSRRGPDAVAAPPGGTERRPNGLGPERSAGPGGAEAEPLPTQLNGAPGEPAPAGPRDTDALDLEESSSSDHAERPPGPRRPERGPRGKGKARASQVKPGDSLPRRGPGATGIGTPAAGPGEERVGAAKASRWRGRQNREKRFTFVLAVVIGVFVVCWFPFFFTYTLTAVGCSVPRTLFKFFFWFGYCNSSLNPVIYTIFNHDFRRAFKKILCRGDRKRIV
Description: (§1) Supplement media-1.zip/Safety_Panel_Profile.csv, table | column: perc_inhibition

A2A (h) = target: T2, A2A (h) (Homo sapiens, UniProt P29274); assay: In vitro CEREP profiling, A2A (h) (agonist radioligand); format: binding; details: test compound 10 uM
T2 construct: purchased Eurofins Cerep (SafetyScreen44), recognised from the panel format
T2 sequence (P29274 whole entry): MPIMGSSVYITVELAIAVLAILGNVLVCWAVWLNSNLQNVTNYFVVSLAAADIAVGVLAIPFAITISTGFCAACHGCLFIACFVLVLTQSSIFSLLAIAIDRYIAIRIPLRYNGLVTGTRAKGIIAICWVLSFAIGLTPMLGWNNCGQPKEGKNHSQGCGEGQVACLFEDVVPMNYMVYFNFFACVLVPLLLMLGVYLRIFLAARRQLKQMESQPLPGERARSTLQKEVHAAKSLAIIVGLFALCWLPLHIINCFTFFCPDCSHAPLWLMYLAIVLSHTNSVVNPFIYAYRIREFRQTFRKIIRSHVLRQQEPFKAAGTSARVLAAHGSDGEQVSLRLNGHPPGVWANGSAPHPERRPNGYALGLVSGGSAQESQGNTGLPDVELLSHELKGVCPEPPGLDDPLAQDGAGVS
Description: as §1

KV channel = assay: In vitro CEREP profiling, KV channel (antagonist radioligand); format: binding; details: test compound concentration 10 uM
Description: as §1

human CHRM2 (M2) = target: T3, human CHRM2 (M2) (Homo sapiens, UniProt P08172); assay: Eurofins CEREP panel, M2; format: binding; details: M2 (h) (antagonist radioligand), test compound concentration 10 uM
T3 construct: purchased Eurofins Cerep (SafetyScreen44), recognised from the panel format
T3 sequence (P08172 1-466): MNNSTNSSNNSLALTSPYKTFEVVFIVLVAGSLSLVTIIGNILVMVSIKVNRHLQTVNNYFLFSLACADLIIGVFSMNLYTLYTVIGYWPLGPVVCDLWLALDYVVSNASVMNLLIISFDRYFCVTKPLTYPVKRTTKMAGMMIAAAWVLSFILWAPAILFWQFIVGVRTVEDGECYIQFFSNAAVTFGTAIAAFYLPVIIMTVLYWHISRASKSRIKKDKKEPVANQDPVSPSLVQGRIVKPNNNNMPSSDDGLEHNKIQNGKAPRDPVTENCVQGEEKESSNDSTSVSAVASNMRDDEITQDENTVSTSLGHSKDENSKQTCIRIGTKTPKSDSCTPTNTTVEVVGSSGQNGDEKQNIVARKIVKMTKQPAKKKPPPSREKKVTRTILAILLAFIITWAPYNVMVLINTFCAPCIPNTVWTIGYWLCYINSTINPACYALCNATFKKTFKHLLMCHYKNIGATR

HeLa-ACE2 cells = details: for perc_max_measured: highest measured response of the dose series; for perc_min_measured: lowest measured response of the dose series
Protein binding = format: in vitro ADME
Description: Supplement media-1.zip/Protein_Binding.csv, table | column: fu; perc_bound; perc_free; perc_recovered

M3 (h) = target: T4, M3 (h) (Homo sapiens, UniProt P20309); assay: In vitro CEREP profiling, M3 (h) (antagonist radioligand); format: binding; details: test compound concentration 10 uM
T4 construct: purchased Eurofins Cerep (SafetyScreen44), recognised from the panel format
T4 sequence (P20309 whole entry): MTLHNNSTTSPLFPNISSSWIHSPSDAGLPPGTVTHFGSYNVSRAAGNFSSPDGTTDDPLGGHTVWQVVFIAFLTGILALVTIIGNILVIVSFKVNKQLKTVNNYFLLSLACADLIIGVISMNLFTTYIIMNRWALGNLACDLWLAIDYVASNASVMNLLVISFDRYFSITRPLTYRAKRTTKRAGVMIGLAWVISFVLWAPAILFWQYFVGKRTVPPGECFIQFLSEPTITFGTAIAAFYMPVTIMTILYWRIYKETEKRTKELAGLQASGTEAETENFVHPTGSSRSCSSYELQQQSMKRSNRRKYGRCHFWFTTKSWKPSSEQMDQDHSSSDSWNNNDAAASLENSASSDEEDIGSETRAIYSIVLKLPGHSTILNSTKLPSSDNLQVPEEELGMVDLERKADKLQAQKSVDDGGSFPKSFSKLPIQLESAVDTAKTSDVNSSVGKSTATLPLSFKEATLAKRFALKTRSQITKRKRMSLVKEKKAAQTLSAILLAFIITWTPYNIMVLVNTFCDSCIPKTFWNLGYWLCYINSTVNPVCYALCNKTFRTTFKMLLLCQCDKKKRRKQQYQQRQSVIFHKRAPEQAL
Description: as §1

CB1 (h) = target: T5, CB1 (h) (Homo sapiens, UniProt P21554); assay: In vitro CEREP profiling, CB1 (h) (agonist radioligand); format: binding; details: test compound 10 uM
T5 construct: purchased Eurofins Cerep (SafetyScreen44), recognised from the panel format
T5 sequence (P21554 whole entry): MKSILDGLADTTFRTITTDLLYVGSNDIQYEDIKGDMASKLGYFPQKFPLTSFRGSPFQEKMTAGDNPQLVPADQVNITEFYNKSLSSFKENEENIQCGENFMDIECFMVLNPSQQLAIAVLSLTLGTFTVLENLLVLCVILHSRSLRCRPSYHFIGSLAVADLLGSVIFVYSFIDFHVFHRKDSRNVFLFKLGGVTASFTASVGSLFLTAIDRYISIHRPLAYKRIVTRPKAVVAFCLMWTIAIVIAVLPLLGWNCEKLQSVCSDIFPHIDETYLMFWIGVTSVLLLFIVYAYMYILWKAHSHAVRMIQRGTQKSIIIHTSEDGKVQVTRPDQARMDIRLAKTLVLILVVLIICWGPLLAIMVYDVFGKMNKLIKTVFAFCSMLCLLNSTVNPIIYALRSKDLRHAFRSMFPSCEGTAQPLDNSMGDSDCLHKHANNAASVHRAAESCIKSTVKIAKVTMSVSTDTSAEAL
Description: as §1

alpha1A (h) = target: T6, alpha1A (h) (Homo sapiens, UniProt P35348); assay: In vitro CEREP profiling, alpha1A (h) (antagonist radioligand); format: binding; details: test compound 10 uM
T6 construct: purchased Eurofins Cerep (SafetyScreen44), recognised from the panel format
T6 sequence (P35348 1-466): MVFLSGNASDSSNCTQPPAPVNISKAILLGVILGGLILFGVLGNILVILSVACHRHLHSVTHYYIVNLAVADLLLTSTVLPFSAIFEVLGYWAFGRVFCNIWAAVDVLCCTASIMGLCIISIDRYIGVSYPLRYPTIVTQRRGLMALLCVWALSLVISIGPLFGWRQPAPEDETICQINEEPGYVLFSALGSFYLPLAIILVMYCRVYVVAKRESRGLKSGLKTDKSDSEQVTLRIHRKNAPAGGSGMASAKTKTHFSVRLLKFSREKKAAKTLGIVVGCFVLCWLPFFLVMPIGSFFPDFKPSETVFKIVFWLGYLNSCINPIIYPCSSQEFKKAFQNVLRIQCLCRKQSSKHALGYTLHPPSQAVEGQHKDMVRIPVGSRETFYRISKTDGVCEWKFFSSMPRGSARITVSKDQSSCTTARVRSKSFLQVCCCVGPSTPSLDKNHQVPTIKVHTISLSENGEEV
Description: as §1

[1] = In vitro dog plasma protein binding
[2] = In vitro fetal calf serum protein binding
[3] = In vitro human plasma protein binding
[4] = In vitro mouse plasma protein binding
[5] = In vitro rat plasma protein binding
[6] = read-out: perc_inhibition (% inhibition of the binding of a ligand specific for each target)
[7] = protocol HeLa-ACE2 cytotoxicity

CC(C)[C@H](Nc1ncnc2[nH]ccc12)c1ccc2c(c1)S(=O)(=O)CCC2 [ASAP-0008674]
IC50 (CYP; isoform 1A2): > 50 µM | potency (CYP; isoform 1A2): weak | IC50 (CYP; isoform 2C9): 18.2 µM | potency (CYP; isoform 2C9): weak | IC50 (CYP; isoform 2C19): 15 µM | potency (CYP; isoform 2C19): weak | IC50 (CYP; isoform 2D6): > 50 µM | potency (CYP; isoform 2D6): weak | IC50 (CYP; isoform 3A4): 3.2 µM | potency (CYP; isoform 3A4): moderate | perc_inhibition (% inhibition of the binding of a ligand specific for each target) (alpha2A (h)): 10% | perc_inhibition (% inhibition of the binding of a ligand specific for each target) (A2A (h)): 11% | perc_inhibition (% inhibition of the binding of a ligand specific for each target) (KV channel): -10% | perc_inhibition (% inhibition of the binding of a ligand specific for each target) (human CHRM2 (M2)): 34% | CC50 (HeLa-ACE2 cells; HeLa-ACE2 cytotoxicity): > 20 µM | cc10 (HeLa-ACE2 cells; HeLa-ACE2 cytotoxicity): > 20.0 µM | perc_max_measured (HeLa-ACE2 cells; HeLa-ACE2 cytotoxicity): 118.208% and 98.628% | perc_min_measured (HeLa-ACE2 cells; HeLa-ACE2 cytotoxicity): 91.836% and 85.869% | fu (Protein binding; [1]): 0.148 | perc_bound (Protein binding; [1]): 85.2% | perc_free (Protein binding; [1]): 14.8% | perc_recovered (Protein binding; [1]): 97.58% | fu (Protein binding; [2]): 0.095 | perc_bound (Protein binding; [2]): 90.5% | perc_free (Protein binding; [2]): 9.5% | perc_recovered (Protein binding; [2]): 94.23% | fu (Protein binding; [3]): 0.144 | perc_bound (Protein binding; [3]): 85.6% | perc_free (Protein binding; [3]): 14.4% | perc_recovered (Protein binding; [3]): 95.79% | fu (Protein binding; [4]): 0.124 | perc_bound (Protein binding; [4]): 87.6% | perc_free (Protein binding; [4]): 12.4% | perc_recovered (Protein binding; [4]): 89.46% | fu (Protein binding; [5]): 0.189 | perc_bound (Protein binding; [5]): 81.1% | perc_free (Protein binding; [5]): 18.9% | perc_recovered (Protein binding; [5]): 91.14% | perc_inhibition (% inhibition of the binding of a ligand specific for each target) (M3 (h)): 5% | perc_inhibition (% inhibition of the binding of a ligand specific for each target) (CB1 (h)): -13% | perc_inhibition (% inhibition of the binding of a ligand specific for each target) (alpha1A (h)): -2%

Cc1nn(C)cc1-c1cc2c(NC(c3ccc4c(c3)S(=O)(=O)CCC4)C(C)C)ncnc2[nH]1 (centres unmarked) [ASAP-0011446]
inhibition at 10 µM (alpha2A (h); [6]): 5% | inhibition at 10 µM (A2A (h); [6]): 13% | perc_inhibition (% inhibition of the binding of a ligand specific for each target) (KV channel): 1% | inhibition at 10 µM (human CHRM2 (M2); [6]): 5% | cc10 (HeLa-ACE2 cells; HeLa-ACE2 cytotoxicity): > 20.0 µM | perc_max_measured (HeLa-ACE2 cells; HeLa-ACE2 cytotoxicity): 134.035% | perc_min_measured (HeLa-ACE2 cells; HeLa-ACE2 cytotoxicity): 80.92% | CC50 (HeLa-ACE2 cells; [7]): > 20 µM | cc10 (HeLa-ACE2 cells; [7]): > 20.0 µM | perc_max_measured (HeLa-ACE2 cells; [7]): 92.951% | perc_min_measured (HeLa-ACE2 cells; [7]): 82.728% | inhibition at 10 µM (M3 (h); [6]): -9% | inhibition at 10 µM (CB1 (h); [6]): 0% | inhibition at 10 µM (alpha1A (h); [6]): 8%

CC(C)[C@@H](Nc1ncnc2[nH]c(-c3cnn(C)c3C#N)cc12)c1ccc2c(n1)OCCO2 [ASAP-0008418]
CC50 (HeLa-ACE2 cells; [7]): > 50 µM | cc10 (HeLa-ACE2 cells; [7]): > 50.0 µM | perc_max_measured (HeLa-ACE2 cells; [7]): 131.128% and 106.847% | perc_min_measured (HeLa-ACE2 cells; [7]): 59.813% and 94.114%

Reference: publication doi:10.1101/2024.08.19.608619, “Discovery of potent SARS-CoV-2 nsp3 macrodomain inhibitors uncovers lack of translation to cellular antiviral response” (bioRxiv, 2024)
